# According to patent publication US10206937B2, “Boronic acid derivatives and therapeutic uses thereof” (Qpex Biopharma, Inc., priority 2014, dated 2019):
# Tests used:
# NDM-1 [1] = target: T1, NDM-1 (Klebsiella pneumoniae, UniProt C7C422); experiment: biochemical; conditions: cleavage of imipenem (100 uM) by NDM-1; read-out: Ki, Imipenem
# VIM-1 = target: T2, VIM-1 (Pseudomonas aeruginosa, UniProt A0A0F7KYQ8); experiment: biochemical; conditions: cleavage of nitrocefin (200 uM) by VIM-1 supernatant
# T2 construct: made in house; host or cells: ECM6711 strain carrying pUCP24-VIM-1 plasmid; culture supernatant used unpurified
# NDM-1 [2] = target: T1, NDM-1; experiment: Inhibition of purified class B carbapenemase NDM-1 (Ki, imipenem substrate); format: biochemical; conditions: NDM-1, substrate imipenem; read-out: Ki NDM-1, Imipenem
# [3] = target: purified class A, C and D enzymes (Enterobacter cloacae, UniProt P05364); format: biochemical; conditions: purified P99/AmpC of ECL; nitrocefin reporter substrate
# [4] = target: purified class A, C and D enzymes (Escherichia coli, UniProt Q9L5C7); format: biochemical; conditions: purified CTX-M-14; nitrocefin reporter substrate
# [5] = target: T3, purified class A, C and D enzymes (UniProt P0AD64, L31Q/G234S/E235K, species not given); format: biochemical; conditions: read-out: Ki (SHV-12, NCF); purified SHV-12; nitrocefin reporter substrate
# T3 construct: Ki (SHV-12, NCF); other: purified SHV-12; nitrocefin reporter substrate
# T3 sequence (P0AD64 1-286 L31Q/G234S/E235K): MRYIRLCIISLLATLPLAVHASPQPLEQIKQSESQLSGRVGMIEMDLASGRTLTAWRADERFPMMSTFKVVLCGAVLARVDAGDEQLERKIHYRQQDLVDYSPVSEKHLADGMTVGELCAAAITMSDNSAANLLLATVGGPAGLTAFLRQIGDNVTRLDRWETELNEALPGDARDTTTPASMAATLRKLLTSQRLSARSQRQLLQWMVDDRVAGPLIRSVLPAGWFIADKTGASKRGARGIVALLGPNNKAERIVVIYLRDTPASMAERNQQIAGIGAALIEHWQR
# [6] = target: T4, purified class A, C and D enzymes (UniProt Q6XEC0); format: biochemical; conditions: read-out: Ki (OXA-48, NCF); purified OXA-48; nitrocefin reporter substrate
# T4 construct: rows headed: Ki (OXA-48, NCF); other: purified OXA-48; nitrocefin reporter substrate
# [7] = target: T5, purified class A, C and D enzymes (UniProt Q9F663); format: biochemical; conditions: read-out: Ki (KPC-2, NCF); purified KPC-2; nitrocefin reporter substrate
# T5 construct: rows headed: Ki (KPC-2, NCF); other: purified KPC-2; nitrocefin reporter substrate
# Sequence of purified class A, C and D enzymes (Escherichia coli, UniProt Q9L5C7) (Q9L5C7 entry or part of it): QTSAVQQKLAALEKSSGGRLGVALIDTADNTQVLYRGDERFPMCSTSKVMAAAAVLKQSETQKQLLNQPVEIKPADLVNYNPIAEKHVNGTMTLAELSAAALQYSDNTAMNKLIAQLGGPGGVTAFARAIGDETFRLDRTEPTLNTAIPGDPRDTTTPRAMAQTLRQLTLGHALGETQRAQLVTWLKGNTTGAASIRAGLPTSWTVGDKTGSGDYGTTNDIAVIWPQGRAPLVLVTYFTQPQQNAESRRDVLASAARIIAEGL
# T1 sequence (C7C422 29-270, looked up, species assumed): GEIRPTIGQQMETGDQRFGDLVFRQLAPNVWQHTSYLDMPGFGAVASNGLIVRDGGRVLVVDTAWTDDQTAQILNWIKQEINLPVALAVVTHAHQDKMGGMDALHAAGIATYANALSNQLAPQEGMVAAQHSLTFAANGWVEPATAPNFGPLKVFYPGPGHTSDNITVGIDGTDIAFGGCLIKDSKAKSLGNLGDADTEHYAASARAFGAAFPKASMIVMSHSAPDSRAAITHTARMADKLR
# Sequence of purified class A, C and D enzymes (Enterobacter cloacae, UniProt P05364) (P05364 21-381): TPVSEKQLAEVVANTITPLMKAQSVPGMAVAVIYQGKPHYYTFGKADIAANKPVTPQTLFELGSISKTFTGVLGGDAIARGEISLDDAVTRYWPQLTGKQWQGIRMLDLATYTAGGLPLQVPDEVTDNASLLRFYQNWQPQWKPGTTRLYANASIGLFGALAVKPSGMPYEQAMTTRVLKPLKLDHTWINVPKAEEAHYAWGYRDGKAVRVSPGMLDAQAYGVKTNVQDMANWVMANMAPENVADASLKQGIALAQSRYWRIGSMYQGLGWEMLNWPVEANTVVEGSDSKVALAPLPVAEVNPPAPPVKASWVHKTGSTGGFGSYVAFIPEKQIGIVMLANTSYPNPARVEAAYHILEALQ
SMILES,Ki (NDM-1 [1]) [nM],IC50 (VIM-1) [nM],Ki (NDM-1 [2]) [nM],"Ki (P99/AmpC of ECL, NCF) [3]","Ki (CTX-M-14, NCF) [4]",Ki [5] [nM],Ki [6] [nM],Ki [7] [nM]
"COc1ccc2c(c1C(=O)O)OB(O)[C@@H](Sc1nnc(NC3CCNCC3)s1)C2 [Compound 104, (3R)-2-hydroxy-7-methoxy-3-[[5-(4-piperidylamino)-1,3,4-thiadiazol-2-yl]sulfanyl]-3,4-dihydro-1,2-benzoxaborinine-8-carboxylic acid]",< 10,< 1000,< 10,Y (0.1 μM to 1 μM),X (Less than 0.1 μM),< 100,< 100,< 100
"COc1ccc2c(c1C(=O)O)OB(O)[C@@H](Sc1nnc(NCCNC3CNC3)s1)C2 [Compound 105, (3R)-3-[[5-[2-(azetidin-3-ylamino)ethylamino]-1,3,4-thiadiazol-2-yl]sulfanyl]-2-hydroxy-7-methoxy-3,4-dihydro-1,2-benzoxaborinine-8-carboxylic acid]",< 10,< 1000,< 10,Y (0.1 μM to 1 μM),X (Less than 0.1 μM),< 100,< 100,100 to 1000
"COc1ccc2c(c1C(=O)O)OB(O)[C@@H](Sc1nnc(SCCN)s1)C2 [Compound 107, (3R)-3-[[5-(2-aminoethylsulfanyl)-1,3,4-thiadiazol-2-yl]sulfanyl]-2-hydroxy-7-methoxy-3,4-dihydro-1,2-benzoxaborinine-8-carboxylic acid]",< 10,< 1000,< 10,Y (0.1 μM to 1 μM),X (Less than 0.1 μM),< 100,< 100,100 to 1000
"COc1ccc2c(c1C(=O)O)OB(O)[C@@H](Sc1nnc(SC3CNC3)s1)C2 [Compound 108, (3R)-3-[[5-(azetidin-3-ylsulfanyl)-1,3,4-thiadiazol-2-yl]sulfanyl]-2-hydroxy-7-methoxy-3,4-dihydro-1,2-benzoxaborinine-8-carboxylic acid]",10 to 100,< 1000,10 to 100,Y (0.1 μM to 1 μM),X (Less than 0.1 μM),< 100,< 100,100 to 1000
"COc1ccc2c(c1C(=O)O)OB(O)[C@@H](Sc1nnc(SC(CN)CN)s1)C2 [Compound 109, (3R)-3-[[5-[2-amino-1-(aminomethyl)ethyl]sulfanyl-1,3,4-thiadiazol-2-yl]sulfanyl]-2-hydroxy-7-methoxy-3,4-dihydro-1,2-benzoxaborinine-8-carboxylic acid]",< 10,< 1000,< 10,Y (0.1 μM to 1 μM),X (Less than 0.1 μM),< 100,< 100,100 to 1000
"COc1ccc2c(c1C(=O)O)OB(O)[C@@H](Sc1nnc(SCCN3CCOCC3)s1)C2 [Compound 110, (3R)-2-hydroxy-7-methoxy-3-[[5-(2-morpholinoethylsulfanyl)-1,3,4-thiadiazol-2-yl]sulfanyl]-3,4-dihydro-1,2-benzoxaborinine-8-carboxylic acid]",> 100,< 1000,> 100,Y (0.1 μM to 1 μM),X (Less than 0.1 μM),< 100,< 100,< 100
"COc1ccc2c(c1C(=O)O)OB(O)[C@@H](Sc1nnc(Sc3nnc(N)s3)s1)C2 [Compound 111, (3R)-3-[[5-[(5-amino-1,3,4-thiadiazol-2-yl)sulfanyl]-1,3,4-thiadiazol-2-yl]sulfanyl]-2-hydroxy-7-methoxy-3,4-dihydro-1,2-benzoxaborinine-8-carboxylic acid]",> 100,< 1000,> 100,Y (0.1 μM to 1 μM),X (Less than 0.1 μM),< 100,> 1000,100 to 1000
"COc1ccc2c(c1C(=O)O)OB(O)[C@@H](Sc1nnc(SC3CCNCC3)s1)C2 [Compound 112, (3R)-2-hydroxy-7-methoxy-3-[[5-(4-piperidylsulfanyl)-1,3,4-thiadiazol-2-yl]sulfanyl]-3,4-dihydro-1,2-benzoxaborinine-8-carboxylic acid]",10 to 100,< 1000,10 to 100,X (Less than 0.1 μM),X (Less than 0.1 μM),< 100,< 100,< 100
"COc1ccc2c(c1C(=O)O)OB(O)[C@@H](Sc1nnc(SCCCN)s1)C2 [Compound 113, (3R)-3-[[5-(3-aminopropylsulfanyl)-1,3,4-thiadiazol-2-yl]sulfanyl]-2-hydroxy-7-methoxy-3,4-dihydro-1,2-benzoxaborinine-8-carboxylic acid]",< 10,< 1000,< 10,X (Less than 0.1 μM),X (Less than 0.1 μM),< 100,< 100,< 100
"COc1c(F)cc2c(c1C(=O)O)OB(O)[C@@H](Sc1nnc(N)s1)C2 [Compound 114, (3R)-3-[(5-amino-1,3,4-thiadiazol-2-yl)sulfanyl]-6-fluoro-2-hydroxy-7-methoxy-3,4-dihydro-1,2-benzoxaborinine-8-carboxylic acid]",10 to 100,< 1000,10 to 100,Y (0.1 μM to 1 μM),X (Less than 0.1 μM),< 100,< 100,100 to 1000
"Nc1nnc(S[C@H]2Cc3cc4nc[nH]c4c(C(=O)O)c3OB2O)s1 [Compound 115, (3R)-3-[(5-amino-1,3,4-thiadiazol-2-yl)sulfanyl]-2-hydroxy-4,8-dihydro-3H-oxaborinino[6,5-f]benzimidazole-9-carboxylic acid]",> 100,< 1000,> 100,X (Less than 0.1 μM),X (Less than 0.1 μM),< 100,< 100,100 to 1000
"NCCSc1nnc(S[C@H]2Cc3cccc(C(=O)O)c3OB2O)s1 [Compound 116, (3R)-3-[[5-(2-aminoethylsulfanyl)-1,3,4-thiadiazol-2-yl]sulfanyl]-2-hydroxy-3,4-dihydro-1,2-benzoxaborinine-8-carboxylic acid]",< 10,< 1000,< 10,X (Less than 0.1 μM),X (Less than 0.1 μM),< 100,< 100,< 100
"COc1ccc2c(c1C(=O)O)OB(O)[C@@H](Sc1nnc(OCCN)s1)C2 [Compound 117, (3R)-3-[[5-(2-aminoethoxy)-1,3,4-thiadiazol-2-yl]sulfanyl]-2-hydroxy-7-methoxy-3,4-dihydro-1,2-benzoxaborinine-8-carboxylic acid]",< 10,< 1000,< 10,Y (0.1 μM to 1 μM),X (Less than 0.1 μM),< 100,< 100,100 to 1000
"CCOc1ccc2c(c1C(=O)O)OB(O)[C@@H](Sc1nnc(NC3CNC3)s1)C2 [Compound 118, (3R)-3-[[5-(azetidin-3-ylamino)-1,3,4-thiadiazol-2-yl]sulfanyl]-7-ethoxy-2-hydroxy-3,4-dihydro-1,2-benzoxaborinine-8-carboxylic acid]",> 100,< 1000,> 100,Y (0.1 μM to 1 μM),X (Less than 0.1 μM),< 100,< 100,100 to 1000
"Nc1nnc(S[C@H]2Cc3ccc(-n4ccnn4)c(C(=O)O)c3OB2O)s1 [Compound 119, (3R)-3-[(5-amino-1,3,4-thiadiazol-2-yl)sulfanyl]-2-hydroxy-7-(triazol-1-yl)-3,4-dihydro-1,2-benzoxaborinine-8-carboxylic acid]",< 10,< 1000,< 10,Y (0.1 μM to 1 μM),X (Less than 0.1 μM),100 to 1000,< 100,> 1000
